Reference: article PMC10986521 (Microbiology Spectrum, 2024)

What was measured:
[1] = system: FMDV; conditions: read-out: in vitro potency against FMDV (EC50); cited from earlier work
[2] = biological target: T1, FMDV 3Cpro (Foot-and-mouth disease virus A, UniProt A0A097I315); test: cell-based; design: species or system FMDV A/IND287/96 strain; conditions: Cell-based assay (EC50)
[3] = in vitro; conditions: human
[4] = biological target: T1, FMDV 3Cpro; test: biochemical; design: species or system FMDV A/IND287/96 strain (serotype A); conditions: FRET assay (IC50)
[5] = system: SARS-CoV-2; conditions: read-out: EC50 against SARS-CoV-2; cited from earlier work
[6] = system: FMDV; conditions: pig, in vivo; cited from earlier work
[7] = system: FMDV; conditions: mouse, in vivo; cited from earlier work
[8] = system: FMDV; conditions: cited from earlier work
[9] = system: FMDV; conditions: cited from earlier work; remark: listed apart in the source

Row | Structure (SMILES) | EC50 [2] | CC50 [3] | IC50 [4] | also measured
1 | CCOC(=O)/C=C/[C@H](C[C@@H]1CCNC1=O)NC(=O)[C@@H](CC(=O)[C@@H](NC(=O)c1cc(C)on1)C(C)C)Cc1ccc(F)cc1 [AG7088, Rupintrivir, reference compound] | 10.3 ± 0.2 µM | > 50 µM | 4.3 ± 0.2 µM | EC50 [1]: 10 to 20 µM
2 | CC(C)C[C@H](NC(=O)OCC(C)(C)Sc1ccccc1)C(=O)N[C@H](C=O)C[C@@H]1CCNC1=O [Compound D1c] | 1.85 ± 0.35 µM | > 50 µM | 1.2 ± 0.71 µM | EC50 [5]: 0.012 µM
3 | CC(C)C[C@H](NC(=O)OCC(C)(C)Sc1ccccc1)C(=O)N[C@@H](C[C@@H]1CCNC1=O)C(O)S(=O)(=O)O (stereo partly drawn) [Compound D1d] | 1.5 ± 0.43 µM | > 50 µM | 1.01 ± 0.42 µM | EC50 [5]: 0.01 µM
4 | CC(C)C[C@H](NC(=O)OCC(C)(C)[S+]([O-])c1ccccc1)C(=O)N[C@@H](C[C@@H]1CCNC1=O)C(O)S(=O)(=O)O (stereo partly drawn) [Compound D3d] | > 10 µM | > 50 µM | 1.05 ± 0.21 µM | –
5 | CC(C)C[C@H](NC(=O)OCC(C)(C)S(=O)(=O)c1ccccc1)C(=O)N[C@H](C=O)C[C@@H]1CCNC1=O [Compound D4c] | > 10 µM | > 50 µM | 0.9 ± 0.28 µM | –
6 | CC(C)C[C@H](NC(=O)OCC(C)(C)S(=O)(=O)c1ccccc1)C(=O)N[C@@H](C[C@@H]1CCNC1=O)C(O)S(=O)(=O)O (stereo partly drawn) [Compound D4d] | > 10 µM | > 50 µM | 0.65 ± 0.09 µM | –
7 | CC(C)C[C@H](NC(=O)OCC(C)(C)Sc1cccc(F)c1)C(=O)N[C@H](C=O)C[C@@H]1CCNC1=O [Compound D5c] | 1 ± 0.28 µM | > 50 µM | 3.15 ± 0.49 µM | –
8 | CC(C)C[C@H](NC(=O)OCC(C)(C)Sc1ccc(F)cc1)C(=O)N[C@H](C=O)C[C@@H]1CCNC1=O [Compound D6c] | 5.15 ± 0.64 µM | > 50 µM | 0.91 ± 0.15 µM | –
9 | CC(C)C[C@H](NC(=O)OCC(C)(C)Sc1ccc(F)cc1)C(=O)N[C@@H](C[C@@H]1CCNC1=O)C(O)S(=O)(=O)O (stereo partly drawn) [Compound D6d] | 5.85 ± 0.35 µM | > 50 µM | 0.98 ± 0.11 µM | –
10 | CC(C)C[C@H](NC(=O)OCC(C)(C)Sc1cccc(Cl)c1)C(=O)N[C@H](C=O)C[C@@H]1CCNC1=O [Compound D7c] | 1.05 ± 0.21 µM | > 50 µM | 1.5 ± 0.28 µM | –
11 | CC(C)C[C@H](NC(=O)OCC(C)(C)Sc1cccc(Cl)c1)C(=O)N[C@@H](C[C@@H]1CCNC1=O)C(O)S(=O)(=O)O (stereo partly drawn) [Compound D7d] | 1.2 ± 0.14 µM | > 50 µM | 0.6 ± 0.01 µM | –
12 | CC(C)C[C@H](NC(=O)OCCSc1ccccc1)C(=O)N[C@H](C=O)C[C@@H]1CCNC1=O [Compound D8c] | 1.75 ± 0.21 µM | > 50 µM | 1.35 ± 0.35 µM | –
13 | CC(C)C[C@H](NC(=O)OCCSc1ccccc1)C(=O)N[C@@H](C[C@@H]1CCNC1=O)C(O)S(=O)(=O)O (stereo partly drawn) [Compound D8d] | 1.95 ± 0.22 µM | > 50 µM | 1.03 ± 0.24 µM | –
14 | CC(C)C[C@H](NC(=O)OCC(C)(C)Sc1nc2ccccc2[nH]1)C(=O)N[C@H](C=O)C[C@@H]1CCNC1=O [Compound D9c] | > 10 µM | > 50 µM | 2.15 ± 0.34 µM | –
15 | CC(C)C[C@H](NC(=O)OCC(C)(C)Sc1nc2ccccc2[nH]1)C(=O)N[C@@H](C[C@@H]1CCNC1=O)C(O)S(=O)(=O)O (stereo partly drawn) [Compound D9d] | > 10 µM | > 50 µM | 1.75 ± 0.92 µM | –
16 | CC(C)C[C@H](NC(=O)OCC(C)(C)Oc1ccc(Cl)cc1)C(=O)N[C@H](C=O)C[C@@H]1CCNC1=O [Compound D11c] | 0.64 ± 0.15 µM | > 50 µM | 0.69 ± 0.06 µM | –
17 | CC(C)C[C@H](NC(=O)OCC(C)(C)Oc1ccc(Cl)cc1)C(=O)N[C@@H](C[C@@H]1CCNC1=O)C(O)S(=O)(=O)O (stereo partly drawn) [Compound D11d] | 0.98 ± 1.11 µM | > 50 µM | 0.49 ± 0.05 µM | –
18 | [2H]C([2H])(OC(=O)N[C@@H](CC(C)C)C(=O)N[C@H](C=O)C[C@@H]1CCNC1=O)C(C)(C)Oc1ccc(Cl)cc1 [Compound D12c] | 0.35 ± 0.1 µM | > 50 µM | 0.14 ± 0.02 µM | –
19 | [2H]C([2H])(OC(=O)N[C@@H](CC(C)C)C(=O)N[C@@H](C[C@@H]1CCNC1=O)C(O)S(=O)(=O)[O-])C(C)(C)Oc1ccc(Cl)cc1.[Na+] (stereo partly drawn) [Compound D12d] | 0.43 ± 0.31 µM | > 50 µM | 0.19 ± 0.01 µM | –
20 | CC(C)C[C@H](NC(=O)OCC(C)(C)Oc1cccc(Cl)c1)C(=O)N[C@H](C=O)C[C@@H]1CCNC1=O [Compound D13c] | 5.34 ± 1.19 µM | > 50 µM | 0.67 ± 0.08 µM | –
21 | CC(C)C[C@H](NC(=O)OCC(C)(C)Oc1cccc(Cl)c1)C(=O)N[C@@H](C[C@@H]1CCNC1=O)C(O)S(=O)(=O)O (stereo partly drawn) [Compound D13d] | 7.7 ± 0.85 µM | > 50 µM | 0.65 ± 0.21 µM | –
22 | [2H]C([2H])(OC(=O)N[C@@H](CC(C)C)C(=O)N[C@H](C=O)C[C@@H]1CCNC1=O)C(C)(C)Oc1cccc(Cl)c1 [Compound D14c] | 3.38 ± 0.39 µM | > 50 µM | 0.5 ± 0.14 µM | –

Row | Structure (SMILES) | EC50 [2] | CC50 [3] | IC50 [4] | also measured
23 | [2H]C([2H])(OC(=O)N[C@@H](CC(C)C)C(=O)N[C@@H](C[C@@H]1CCNC1=O)C(O)S(=O)(=O)[O-])C(C)(C)Oc1cccc(Cl)c1.[Na+] (stereo partly drawn) [Compound D14d] | 4.81 ± 3.06 µM | > 50 µM | 0.65 ± 0.07 µM | –
24 | CC(C)C[C@H](NC(=O)OCC(C)(C)Oc1ccc(F)cc1)C(=O)N[C@H](C=O)C[C@@H]1CCNC1=O [Compound D15c] | 5.25 ± 0.64 µM | > 50 µM | 0.45 ± 0.07 µM | –
25 | CC(C)C[C@H](NC(=O)OCC(C)(C)Oc1ccc(F)cc1)C(=O)N[C@@H](C[C@@H]1CCNC1=O)C(O)S(=O)(=O)O (stereo partly drawn) [Compound D15d] | 5.9 ± 0.58 µM | > 50 µM | 0.55 ± 0.07 µM | –
26 | CC(C)C[C@H](NC(=O)OCC(C)(C)Oc1cccc(F)c1)C(=O)N[C@H](C=O)C[C@@H]1CCNC1=O [Compound D16c] | 4.9 ± 0.37 µM | > 50 µM | 0.78 ± 0.03 µM | –
27 | CC(C)C[C@H](NC(=O)OCC(C)(C)Oc1cccc(F)c1)C(=O)N[C@@H](C[C@@H]1CCNC1=O)C(O)S(=O)(=O)O (stereo partly drawn) [Compound D16d] | 5.05 ± 0.21 µM | > 50 µM | 0.69 ± 0.02 µM | –
28 | CC(C)C[C@H](NC(=O)[C@H](Cc1cccc2ccccc12)NC(=O)OCc1ccccc1)C(=O)N[C@H](C=O)C[C@@H]1CCNC1=O [Compound E1] | 0.11 ± 0.05 µM | > 50 µM | 0.05 ± 0.08 µM | –
29 | CC(C)C[C@H](NC(=O)[C@H](Cc1cccc2ccccc12)NC(=O)OCc1ccccc1)C(=O)N[C@@H](C[C@@H]1CCNC1=O)C(=O)C(=O)NC(C)C [Compound E6] | 0.15 ± 0.07 µM | > 50 µM | 0.06 ± 0.06 µM | –
30 | CC(C)C[C@H](NC(=O)OCc1ccccc1)C(=O)N[C@@H](C[C@@H]1CCNC1=O)C(=O)C(=O)NC1CC1 [Compound E6b] | 8.8 ± 0.3 µM | > 50 µM | 2.4 ± 0.09 µM | –
31 | CCCCNC(=O)C(=O)[C@H](C[C@@H]1CCNC1=O)NC(=O)[C@H](CC(C)C)NC(=O)OCc1ccccc1 [Compound E6c] | 7 ± 0.5 µM | > 50 µM | 2.1 ± 0.07 µM | –
32 | CCOC(=O)CNC(=O)C(=O)[C@H](C[C@@H]1CCNC1=O)NC(=O)[C@H](CC(C)C)NC(=O)OCc1ccccc1 [Compound E6d] | 9.2 ± 0.1 µM | > 50 µM | 2.2 ± 0.05 µM | –
33 | CC(C)C[C@H](NC(=O)OCc1ccccc1)C(=O)N[C@@H](C[C@@H]1CCNC1=O)C(=O)C(=O)NC(C)(C)C [Compound E6g] | 5.8 ± 0.3 µM | > 50 µM | 1.5 ± 0.1 µM | –
34 | CC(C)C[C@H](NC(=O)OCc1ccccc1)C(=O)N[C@@H](C[C@@H]1CCNC1=O)C(=O)c1ncco1 [Compound E8a] | 8.2 ± 0.09 µM | > 50 µM | 3.4 ± 0.08 µM | –
35 | NC(=O)c1ncc[nH]c1=O [Compound T-1105] | – | – | – | viremia in FMDV-challenged pigs [6]: reduced or prevented viremia
36 | CC(C)C[C@H](NC(=O)OCc1ccccc1)C(=O)N[C@H](C=O)C[C@@H]1CCNC1=O [GC373] | 6.6 ± 0.2 µM | > 50 µM | 2.3 ± 0.07 µM | –
37 | CCCCOc1nc(N)c2c(n1)N(Cc1cccc(CN3CCCC3)c1)CC(=O)N2 [GS-9620] | – | – | – | survival rate in FMDV-vaccinated and un-vaccinated mice [7]: enhanced survival rate
38 | N#Cc1cc(-c2ccccc2)[nH]c1-c1nccc2ccccc12 [NSC116640] | – | – | – | replication of FMDV in cell culture via inhibiting 3Cpro [8]: inhibited the replication of FMDV in cell culture
39 | Oc1ccccc1-c1nc2c3ccccc3c3ccccc3c2[nH]1 [NSC332670] | – | – | – | replication of FMDV in cell culture via inhibiting 3Cpro [8]: inhibited the replication of FMDV in cell culture
40 | COc1ccc(-c2cc(=O)c3c(O)cc(O)c(-c4cc(-c5cc(=O)c6c(O)cc(O)cc6o5)ccc4OC)c3o2)cc1 [isoginkgetin] | – | – | – | replication of FMDV in cell culture via inhibiting 3Cpro [8]: inhibited the replication of FMDV in cell culture
41 | O=c1cc(-c2ccc(O)c(O)c2)oc2cc(O)cc(O)c12 [luteolin] | – | – | – | replication of FMDV in cell culture via inhibiting 3Cpro [8]: inhibited the replication of FMDV in cell culture
42 | Cc1cc(CCCOc2c(C)cc(-c3noc(C(F)(F)F)n3)cc2C)on1 [pleconaril] | – | – | – | in vitro activity against FMDV (EC50) [9]: low micromolar to millimolar range
43 | O=c1c(O)c(-c2ccc(O)c(O)c2)oc2cc(O)cc(O)c12 [quercetin] | – | – | – | replication of FMDV in cell culture via inhibiting 3Cpro [8]: inhibited the replication of FMDV in cell culture
44 | NC(=O)c1ncn([C@@H]2O[C@H](CO)[C@@H](O)[C@H]2O)n1 [ribavirin] | – | – | – | in vitro activity against FMDV (EC50) [9]: low micromolar to millimolar range
